Reference: article PMC3224021 (ACS medicinal chemistry letters, 2011)

Experiments:
human GALK = human GALK (Homo sapiens, UniProt P51570); test: in vitro GALK; assay type: biochemical; settings: for inhibitory activity against GALK (in words): in vitro GALK inhibitory assays, tested up to 50μM
human fibroblast cells = test: cell tolerance / lethality in fibroblast cells; assay type: cell-based
[1] = tested on: GALK in patient fibroblast cells; test: intracellular inhibition of GALK measured by reduction of gal-1P accumulation; assay type: cell-based, human; settings: 50μM

Chain of human GALK (P51570 whole entry): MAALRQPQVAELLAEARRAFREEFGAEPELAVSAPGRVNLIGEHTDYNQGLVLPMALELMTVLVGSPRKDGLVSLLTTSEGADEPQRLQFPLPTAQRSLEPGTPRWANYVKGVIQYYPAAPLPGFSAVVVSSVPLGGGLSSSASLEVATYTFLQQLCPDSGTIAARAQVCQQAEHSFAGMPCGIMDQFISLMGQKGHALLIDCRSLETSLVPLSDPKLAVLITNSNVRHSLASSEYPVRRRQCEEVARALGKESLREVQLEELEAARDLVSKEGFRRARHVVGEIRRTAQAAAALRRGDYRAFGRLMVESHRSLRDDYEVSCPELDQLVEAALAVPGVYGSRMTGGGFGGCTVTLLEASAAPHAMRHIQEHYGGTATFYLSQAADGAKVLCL

| SMILES | inhibitory activity against GALK (in words) (human GALK) | further results |
| --- | --- | --- |
| CSC1=C(C#N)C(=O)NC(c2ccccc2O)S1 (stereo not shown) [compound 3] | possess inhibitory activities |  |
| CC1(C)NC(=O)C(C#N)=C(SCc2ccccc2)S1 [compound 6] | did not display any inhibitory activity |  |
| N#CC1=C(SCc2ccccc2)SC(c2ccc(C(=O)O)cc2)NC1=O (stereo not shown) [compound 4] | possess inhibitory activities |  |
| N#CC1=C(SCc2cccc(N3CCOCC3)c2)SC(c2ccc(O)cc2)NC1=O (stereo not shown) [compound 29] |  | cell tolerance / lethality (human fibroblast cells; 50μM): well-tolerated; cell lethality (human fibroblast cells; 100μM or higher): lethal to cells; inhibition of GALK / lowering of gal-1P in cells (in words) [1]: neither 27 nor 29 was able to inhibit GALK or lowered gal-1P |
| CCCCSC1=C(C#N)C(=O)NC(c2ccccc2O)S1 (stereo not shown) [compound 7] | not all the compounds with hydroxyl groups on the A ring displayed inhibitory activity |  |
| CC(=O)Oc1ccc(C2NC(=O)C(C#N)=C(SCc3ccccc3)S2)cc1OC(C)=O (stereo not shown) [compound 13] |  | cell toxicity (human fibroblast cells; 50μM or higher concentrations): total cell lethality within hours |
| N#CC1=C(SCc2ccccc2)SC(c2ccccc2O)NC1=O (stereo not shown) [compound 1] |  | IC50 (human GALK): 1.4 ± 0.7 µM |
| N#CC1=C(SCc2cccc(N3CCOCC3)c2)SC(c2cc(O)ccc2O)NC1=O (stereo not shown) [compound 27] |  | cell tolerance (human fibroblast cells; up to 100μM): well tolerated; inhibition of GALK / lowering of gal-1P in cells (in words) [1]: neither 27 nor 29 was able to inhibit GALK or lowered gal-1P |
| CC1NC(=O)C(C#N)=C(SCc2ccccc2)S1 (stereo not shown) [compound 5] | did not display any inhibitory activity |  |
| N#CC1=C(SCc2ccccc2)SCNC1=O [compound 8] | did not display any inhibitory activity |  |
| CSC1=C(C#N)C(=O)NC(c2ccc(Cl)cc2Cl)S1 (stereo not shown) [compound 10] | inactive |  |
| N#CC1=C(SCc2ccc(O)cc2)SC2(CCC(C(=O)O)CC2)NC1=O (stereo not shown) [compound 9] | exhibited no activity |  |
| N#CC1=C(SCc2ccccc2)SC(c2ccc(O)c(O)c2)NC1=O (stereo not shown) [compound 2] |  | toxicity in patient cells (human fibroblast cells; concentration not given): toxicity |
